Results published in PMC9898036, “VIP152 is a selective CDK9 inhibitor with pre-clinical in vitro and in vivo efficacy in chronic lymphocytic leukemia” (Leukemia, 2022).

Assays:
TAOK1 = TAOK1 (Homo sapiens, UniProt Q7L7X3); test: KINOMEscan: TAOK1; assay type: binding; details: 100 nM, read-out: Percent Control
SRPK1 = SRPK1 (Homo sapiens, UniProt Q96SB4); test: KINOMEscan: SRPK1; assay type: binding; details: 100 nM, read-out: Percent Control
FLT3(D835H) = FLT3(D835H) (Homo sapiens, UniProt P36888, D835H); test: KINOMEscan: FLT3(D835H); assay type: binding; details: 1000 nM, read-out: Percent Control
BUB1 = BUB1 (Homo sapiens, UniProt O43683); test: KINOMEscan: BUB1; assay type: binding; details: 1000 nM, read-out: Percent Control
LRRK2(G2019S) = LRRK2(G2019S) (Homo sapiens, UniProt Q5S007, G2019S); test: KINOMEscan: LRRK2(G2019S); assay type: binding; details: 1000 nM, read-out: Percent Control
MLK3 = MLK3 (Homo sapiens, UniProt Q16584); test: KINOMEscan: MLK3; assay type: binding; details: 1000 nM, read-out: Percent Control
MLK3, sequence (Q16584 whole entry): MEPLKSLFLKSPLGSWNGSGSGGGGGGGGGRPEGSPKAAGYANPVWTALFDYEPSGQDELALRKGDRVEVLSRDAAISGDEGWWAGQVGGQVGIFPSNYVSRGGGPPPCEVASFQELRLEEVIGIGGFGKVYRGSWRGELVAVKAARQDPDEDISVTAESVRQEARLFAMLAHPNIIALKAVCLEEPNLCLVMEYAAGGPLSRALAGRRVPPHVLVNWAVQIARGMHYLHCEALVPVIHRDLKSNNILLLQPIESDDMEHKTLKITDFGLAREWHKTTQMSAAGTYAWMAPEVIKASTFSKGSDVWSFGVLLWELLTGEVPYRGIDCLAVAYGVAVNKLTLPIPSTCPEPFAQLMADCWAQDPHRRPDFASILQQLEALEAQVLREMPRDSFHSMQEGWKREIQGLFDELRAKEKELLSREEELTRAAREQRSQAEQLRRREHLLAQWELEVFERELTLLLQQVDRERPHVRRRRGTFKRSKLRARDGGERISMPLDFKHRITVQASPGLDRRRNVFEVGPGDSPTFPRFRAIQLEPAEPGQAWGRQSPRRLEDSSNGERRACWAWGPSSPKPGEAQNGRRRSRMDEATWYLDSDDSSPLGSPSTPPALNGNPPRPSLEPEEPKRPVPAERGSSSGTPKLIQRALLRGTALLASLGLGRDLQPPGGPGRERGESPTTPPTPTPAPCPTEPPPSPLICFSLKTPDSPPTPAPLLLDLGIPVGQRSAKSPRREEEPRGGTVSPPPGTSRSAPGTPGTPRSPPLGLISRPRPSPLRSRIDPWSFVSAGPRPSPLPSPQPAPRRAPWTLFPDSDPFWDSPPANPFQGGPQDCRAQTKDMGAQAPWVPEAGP

EGFR(L747-T751del,Sins) = test: KINOMEscan: EGFR(L747-T751del,Sins); assay type: binding, human; details: 1000 nM
FLT3(R834Q) = FLT3(R834Q) (Homo sapiens, UniProt P36888, R834Q); test: KINOMEscan: FLT3(R834Q); assay type: binding; details: 1000 nM, read-out: Percent Control
CLK3 = CLK3 (Homo sapiens, UniProt P49761); test: KINOMEscan: CLK3; assay type: binding; details: 1000 nM, read-out: Percent Control
Dopamine D2S = Dopamine D2S (Homo sapiens, UniProt P14416); test: Eurofins Diversity Panel; assay type: binding; details: hum, Conc. 10 μM
Dopamine D2S, sequence (P14416 1-414 isoform P14416-2): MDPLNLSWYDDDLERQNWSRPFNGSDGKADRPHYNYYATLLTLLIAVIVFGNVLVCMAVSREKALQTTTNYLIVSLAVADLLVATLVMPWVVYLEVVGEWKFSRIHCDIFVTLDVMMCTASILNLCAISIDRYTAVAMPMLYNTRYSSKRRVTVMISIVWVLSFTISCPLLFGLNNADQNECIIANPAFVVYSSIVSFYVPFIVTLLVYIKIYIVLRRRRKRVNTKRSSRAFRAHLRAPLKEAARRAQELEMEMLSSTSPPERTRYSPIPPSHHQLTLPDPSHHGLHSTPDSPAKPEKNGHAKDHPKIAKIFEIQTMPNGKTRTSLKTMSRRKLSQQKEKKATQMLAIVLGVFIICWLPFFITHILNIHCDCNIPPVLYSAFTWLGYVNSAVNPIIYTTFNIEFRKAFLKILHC

ERBB4 = ERBB4 (Homo sapiens, UniProt Q15303); test: KINOMEscan: ERBB4; assay type: binding; details: 1000 nM, read-out: Percent Control
[1] = molecular target: Transporter, Norepinephrine (NET) (Homo sapiens, UniProt P23975); test: Eurofins Diversity Panel; assay type: binding; details: hum, Conc. 10 μM
Transporter, Norepinephrine (NET), sequence (P23975 whole entry): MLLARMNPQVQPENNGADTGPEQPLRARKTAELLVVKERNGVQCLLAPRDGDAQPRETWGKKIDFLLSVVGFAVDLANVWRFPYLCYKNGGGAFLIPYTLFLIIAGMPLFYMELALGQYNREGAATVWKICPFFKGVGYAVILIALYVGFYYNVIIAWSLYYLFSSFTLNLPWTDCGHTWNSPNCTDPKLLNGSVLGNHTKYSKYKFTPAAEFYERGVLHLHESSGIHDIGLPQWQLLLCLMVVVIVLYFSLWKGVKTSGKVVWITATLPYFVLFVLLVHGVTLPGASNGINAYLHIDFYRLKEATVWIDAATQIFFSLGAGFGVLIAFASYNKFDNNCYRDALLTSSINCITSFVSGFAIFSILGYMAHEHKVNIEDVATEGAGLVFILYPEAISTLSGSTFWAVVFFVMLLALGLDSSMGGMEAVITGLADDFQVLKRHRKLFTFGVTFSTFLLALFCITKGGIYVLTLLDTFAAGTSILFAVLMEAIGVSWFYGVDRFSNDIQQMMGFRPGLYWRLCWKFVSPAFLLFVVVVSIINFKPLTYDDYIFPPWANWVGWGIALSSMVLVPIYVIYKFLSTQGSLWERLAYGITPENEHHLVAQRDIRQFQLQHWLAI

ADCK4 = ADCK4 (Homo sapiens, UniProt Q96D53); test: KINOMEscan: ADCK4; assay type: binding; details: 1000 nM, read-out: Percent Control
SIK2 = SIK2 (Homo sapiens, UniProt Q9H0K1); test: KINOMEscan: SIK2; assay type: binding; details: 100 nM, read-out: Percent Control
EIF2AK1 = EIF2AK1 (Homo sapiens, UniProt Q9BQI3); test: KINOMEscan: EIF2AK1; assay type: binding; details: 1000 nM, read-out: Percent Control
CLK2 = CLK2 (Homo sapiens, UniProt P49760); test: KINOMEscan: CLK2; assay type: binding; details: 1000 nM, read-out: Percent Control
Adrenergic β1 = Adrenergic β1 (Homo sapiens, UniProt P08588); test: Eurofins Diversity Panel; assay type: binding; details: hum, Conc. 10 μM
INSR = INSR (Homo sapiens, UniProt P06213); test: KINOMEscan: INSR; assay type: binding; details: 1000 nM, read-out: Percent Control
INSR, sequence (P06213 28-1382): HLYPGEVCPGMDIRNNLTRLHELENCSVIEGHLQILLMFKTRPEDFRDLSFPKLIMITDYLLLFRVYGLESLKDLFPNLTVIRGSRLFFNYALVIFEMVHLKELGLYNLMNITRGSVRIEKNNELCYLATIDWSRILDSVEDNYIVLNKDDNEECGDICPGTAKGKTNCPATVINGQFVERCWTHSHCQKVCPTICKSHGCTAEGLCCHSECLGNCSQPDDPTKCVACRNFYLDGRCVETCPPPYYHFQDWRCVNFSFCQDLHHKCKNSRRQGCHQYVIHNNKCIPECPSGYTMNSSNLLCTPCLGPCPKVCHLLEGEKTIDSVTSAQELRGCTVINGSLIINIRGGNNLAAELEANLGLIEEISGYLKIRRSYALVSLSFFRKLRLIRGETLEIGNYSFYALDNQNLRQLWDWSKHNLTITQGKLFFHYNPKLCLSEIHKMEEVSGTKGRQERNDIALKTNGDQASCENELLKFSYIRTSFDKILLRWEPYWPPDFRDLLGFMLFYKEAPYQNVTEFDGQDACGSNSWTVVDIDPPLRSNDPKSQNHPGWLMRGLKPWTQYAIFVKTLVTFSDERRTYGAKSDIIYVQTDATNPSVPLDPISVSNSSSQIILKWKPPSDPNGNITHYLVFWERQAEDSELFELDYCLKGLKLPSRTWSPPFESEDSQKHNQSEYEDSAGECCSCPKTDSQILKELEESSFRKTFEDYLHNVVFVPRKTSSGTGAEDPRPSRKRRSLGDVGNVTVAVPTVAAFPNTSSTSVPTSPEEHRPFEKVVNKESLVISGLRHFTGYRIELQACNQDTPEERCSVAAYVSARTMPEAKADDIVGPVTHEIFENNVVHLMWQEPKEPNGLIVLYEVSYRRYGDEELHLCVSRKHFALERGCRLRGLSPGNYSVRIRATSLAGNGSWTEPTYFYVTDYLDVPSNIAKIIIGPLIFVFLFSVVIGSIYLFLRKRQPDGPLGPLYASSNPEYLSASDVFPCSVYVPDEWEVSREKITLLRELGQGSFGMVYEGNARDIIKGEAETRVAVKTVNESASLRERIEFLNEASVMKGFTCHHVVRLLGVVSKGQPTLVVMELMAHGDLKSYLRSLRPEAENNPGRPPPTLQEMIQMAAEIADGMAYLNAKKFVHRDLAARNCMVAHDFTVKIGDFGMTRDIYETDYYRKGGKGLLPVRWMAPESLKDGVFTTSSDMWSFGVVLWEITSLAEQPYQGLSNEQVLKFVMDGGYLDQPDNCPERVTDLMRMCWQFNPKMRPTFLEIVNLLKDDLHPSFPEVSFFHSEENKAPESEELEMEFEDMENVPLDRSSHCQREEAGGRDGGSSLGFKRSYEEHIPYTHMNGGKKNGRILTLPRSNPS

MAP4K5 = MAP4K5 (Homo sapiens, UniProt Q9Y4K4); test: KINOMEscan: MAP4K5; assay type: binding; details: 1000 nM, read-out: Percent Control
MAP4K5, sequence (Q9Y4K4 whole entry): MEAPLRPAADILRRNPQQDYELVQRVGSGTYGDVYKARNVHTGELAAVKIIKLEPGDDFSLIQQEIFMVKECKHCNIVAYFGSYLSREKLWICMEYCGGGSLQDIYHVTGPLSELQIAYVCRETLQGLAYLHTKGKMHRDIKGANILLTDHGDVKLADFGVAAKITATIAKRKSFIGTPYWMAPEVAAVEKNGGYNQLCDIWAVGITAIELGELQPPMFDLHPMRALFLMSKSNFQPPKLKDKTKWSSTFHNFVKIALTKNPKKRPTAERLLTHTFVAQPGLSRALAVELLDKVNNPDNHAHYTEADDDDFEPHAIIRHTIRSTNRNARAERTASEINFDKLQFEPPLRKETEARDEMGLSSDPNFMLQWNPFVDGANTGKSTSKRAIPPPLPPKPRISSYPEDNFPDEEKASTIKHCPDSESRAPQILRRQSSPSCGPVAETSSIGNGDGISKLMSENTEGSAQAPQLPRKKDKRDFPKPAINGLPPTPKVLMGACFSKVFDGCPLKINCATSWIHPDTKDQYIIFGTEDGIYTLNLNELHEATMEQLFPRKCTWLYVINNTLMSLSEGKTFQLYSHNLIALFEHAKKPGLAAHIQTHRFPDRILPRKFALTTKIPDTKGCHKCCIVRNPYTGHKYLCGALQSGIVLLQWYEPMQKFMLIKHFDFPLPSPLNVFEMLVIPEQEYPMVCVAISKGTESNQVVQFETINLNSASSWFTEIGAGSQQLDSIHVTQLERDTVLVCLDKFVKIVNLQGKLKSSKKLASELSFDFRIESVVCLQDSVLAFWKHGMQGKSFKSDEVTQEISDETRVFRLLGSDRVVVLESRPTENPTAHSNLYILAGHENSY

MAPKAPK5 = MAPKAPK5 (Homo sapiens, UniProt Q8IW41); test: KINOMEscan: MAPKAPK5; assay type: binding; details: 1000 nM, read-out: Percent Control
CDK7/Cyclin H = CDK7/Cyclin H (Homo sapiens, UniProt P50613); test: HotSpot radiometric kinase assay; assay type: biochemical; set-up: purchased ReactionBio
Procedure: (§1) We next compared VIP152 to other CDK inhibitors currently in development. […] The compounds were tested in a 10-dose series from 0.5 nM to 10 µM against CDK9 in complex with Cyclin T1/T2/K, CDK7/Cyclin H, and GSK3α/β.
(§2) Kinomescan Kinase Profiling Assay
(§3) Kinomescan Assay was performed at DiscoverRX and described in Fabian, et al. 2005, Nat.
(§4) Biotechnol. In brief, kinases were produced and subsequently tagged with DNA for qPCR detection.
(§5) Streptavidin-coated magnetic beads were bound to biotinylated kinase ligands to serve as a solid support.
(§6) VIP152 was dissolved in DMSO and tested across a 10 serial threefold dilution set and compared to a test […]
(§7) compound and a DMSO control.
(§8) Kinome map was produced via TreeSpot
(§9) Analysis from DiscoverRX.
(§10) HotSpot Kinase Assay Protocol
(§11) Compounds tested via HotSpot Kinase Assay were sent to ReactionBio for the experiment. The […]
(§12) Kinase substrate was added to reaction buffer (20 mM Hepes (pH 7.5), 10 mM MgCl2, 1 mM EGTA, 0.01% Brij35, 0.02 mg/ml BSA, 0.1 mM Na3VO4, 2 mM DTT, 1% DMSO). Cofactors and kinases were gently added to the reaction buffer. Compounds to be tested were dissolved in 100% DMSO and were delivered into the kinase reaction mixture by Acoustic technology (Echo550; nanoliter range) and incubated for 20 min at room temperature. […] Kinase activity was detected by P81 filter-binding method. […]

GSK3α = GSK3α (Homo sapiens, UniProt P49840); test: HotSpot radiometric kinase assay; assay type: biochemical; set-up: purchased ReactionBio; details: 10-dose series from 0.5 nM to 10 µM; vs dinaciclib, KB-0742, atuveciclib
Procedure: as §1, §2, §3, §4, §5, §6, §7, §8, §9, §10, §11, §12

Phorbol Ester = test: Eurofins Diversity Panel; assay type: binding; details: mouse, Conc. 10 μM

TAOK1, sequence (Q7L7X3 whole entry): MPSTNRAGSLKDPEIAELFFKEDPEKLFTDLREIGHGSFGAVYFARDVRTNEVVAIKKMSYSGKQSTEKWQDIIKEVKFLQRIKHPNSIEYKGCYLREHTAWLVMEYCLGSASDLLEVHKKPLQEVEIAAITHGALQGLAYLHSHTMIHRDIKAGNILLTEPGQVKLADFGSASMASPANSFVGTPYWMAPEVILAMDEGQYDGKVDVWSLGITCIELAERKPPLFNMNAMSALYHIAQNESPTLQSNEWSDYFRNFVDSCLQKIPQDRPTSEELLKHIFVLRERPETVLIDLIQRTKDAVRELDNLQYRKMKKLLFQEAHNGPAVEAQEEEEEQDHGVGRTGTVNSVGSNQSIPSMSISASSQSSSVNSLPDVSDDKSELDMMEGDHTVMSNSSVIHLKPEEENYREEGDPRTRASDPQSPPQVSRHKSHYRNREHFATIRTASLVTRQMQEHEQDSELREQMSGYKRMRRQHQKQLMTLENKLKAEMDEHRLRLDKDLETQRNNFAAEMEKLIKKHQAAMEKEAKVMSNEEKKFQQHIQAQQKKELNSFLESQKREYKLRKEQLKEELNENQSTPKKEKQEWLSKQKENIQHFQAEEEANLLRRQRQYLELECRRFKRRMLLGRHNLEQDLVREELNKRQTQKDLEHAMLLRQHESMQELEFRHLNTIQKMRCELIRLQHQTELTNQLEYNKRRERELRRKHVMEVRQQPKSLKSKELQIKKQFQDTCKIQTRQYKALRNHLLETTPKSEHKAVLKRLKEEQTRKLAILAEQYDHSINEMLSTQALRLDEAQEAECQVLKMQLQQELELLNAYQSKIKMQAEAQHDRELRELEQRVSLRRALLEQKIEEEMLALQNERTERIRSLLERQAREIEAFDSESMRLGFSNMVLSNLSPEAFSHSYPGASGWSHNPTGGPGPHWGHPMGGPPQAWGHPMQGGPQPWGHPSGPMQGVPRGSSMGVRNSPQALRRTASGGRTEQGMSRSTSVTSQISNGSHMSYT

## COc1cc(F)ccc1-c1cc(Nc2cc(CS(C)(=N)=O)ccn2)ncc1F (centres unmarked) [VIP152]
TAOK1
  remaining binding at 0.1 µM: 92%
SRPK1
  remaining binding at 0.1 µM: 100%
FLT3(D835H)
  remaining binding at 1 µM: 57%
BUB1
  remaining binding at 1 µM: 7.1%
LRRK2(G2019S)
  remaining binding at 1 µM: 86%
MLK3
  remaining binding at 1 µM: 87%
EGFR(L747-T751del,Sins)
  Percent Control: 97%
FLT3(R834Q)
  remaining binding at 1 µM: 78%
CLK3
  remaining binding at 1 µM: 85%
Dopamine D2S
  inhibition at 10 µM: 15%
ERBB4
  remaining binding at 1 µM: 88%
[1]
  inhibition at 10 µM: 37%
ADCK4
  remaining binding at 1 µM: 82%
SIK2
  remaining binding at 0.1 µM: 63%
EIF2AK1
  remaining binding at 1 µM: 100%
CLK2
  remaining binding at 1 µM: 82%
Adrenergic β1
  inhibition at 10 µM: -7%
INSR
  remaining binding at 1 µM: 97%
MAP4K5
  remaining binding at 1 µM: 41%
MAPKAPK5
  remaining binding at 1 µM: 89%
CDK7/Cyclin H
  IC50: > 10 µM
GSK3α
  potency versus the other inhibitors tested: higher potency
Phorbol Ester
  % Inh.: 8%
